Source: patent publication EP0252983B1, “SALTS OF N-(VINYLOXIETHYL)DITHIOCARBAMIC ACID, METHOD OF OBTAINING THEREOF AND […] ON THEM” (priority 1985, dated 1987)

Experiments:
Geotrichum candidum Link = experiment: Mycelial growth inhibition on agar (contact activity); type: cell-based; settings: Tabelle 11
Protocol: (§1) Die Prüfungen werden nach dem Verfahren zur Ermittlung der Kontaktaktivität durchgeführt. Man verwendet das in Wasser gelöste Kalium-N-(vinyloxyäthyl)dithiocarbamat, führt es in ein Nährmedium ein und vergießt auf Petri-Schalen. Nach 24 Stunden wird mit Pilzmyzelium nach einem Stichverfahren geimpft. Dann temperiert man die Schalen innerhalb von 5 Tagen bei einer zwischen 24 und 26 °C liegenden Temperatur und mißt den Durchmesser von Pilzkolonien, ermittelt den Prozentsatz der Hemmung des Myzelwachstums (S) ausgehend von Angaben am 5. Tag nach der Abbott-Formel [drawing 13] worin dc für den Durchmesser der Pilzkolonien, de für den Durchmesser von Pilzkolonien in der Schale stehen, wo ein die zu prüfenden Stoffe enthaltendes Medium vorhanden ist. Dieses Verfahren zur Ermittlung der mikrobiologischen Aktivität ist in anderen Beispielen verwendet.
(§2) Die Pilzkulturen werden auf Würzeagar gezüchtet. Ergebnisse, erhalten bei der Prüfung der fungiziden Aktivität gegen reine Kulturen von Mikroorganismen, welche Bioschädigungen hervorrufen, sind in der Tabelle 1 dargestellt.

Penicillium charlesii = experiment: as above; type: cell-based; settings: Tabelle 11
Protocol: as §1, §2

Penicillium chrysogenum = experiment: as above; type: cell-based; settings: Tabelle 11
Protocol: as §1, §2

Walrotiela subiculesa = experiment: as above; type: cell-based; settings: Tabelle 11
Protocol: as §1, §2

Bacillus = experiment: Bactericidal activity on agar (concentration of complete growth inhibition); type: cell-based; settings: % bezogen auf den Wirkstoff; am 5. Tag
Protocol: (§3) Geprüft wird die bakterizide Aktivität von Kalium-, Natrium-, Zink- und Kupfersalzen der N-(Vinyloxyäthyl)dithiocarbamidsäure gegen Bakterien der Gattungen Bacillus, Micrococcus, Pseudomonas, Escherichia und Xantomonas.
(§4) Man stellt wäßrige Stofflösungen verschiedener Konzentration her, die so berechnet werden, daß die Stoffkonzentration in der Petri-Schale bei der Gabe von 1 ml Lösung in das geschmolzene Nährmedium (45 bis 50 °C) zwischen 0,003 und 25 % (bezogen auf den Wirkstoff) schwankt. Nach 18 bis 24 Stunden bringt man auf die Oberfläche des Nährmediums 0,1 ml wäßrige Suspension eintägiger reiner Kulturen von Bakterien auf und verteilt sie gleichmäßig. In Kontrollschalen verteilt sich 0,1 ml Wasser über die Oberfläche des Nährmediums. Die Inkubation erfolgt bei 37 °C innerhalb von 5 Tagen. Die Wirksamkeit der Stoffe wird nach dem Auftreten des Bakterienwachstums auf der Oberfläche des Nährmediums eingeschätzt. Die Prüfergebnisse sind in der Tabelle 13 dargestellt.

Escherichia = experiment: as above; type: cell-based; settings: % bezogen auf den Wirkstoff; am 5. Tag
Protocol: as §3, §4

Micrococcus = experiment: as above; type: cell-based; settings: % bezogen auf den Wirkstoff; am 5. Tag
Protocol: as §3, §4

Pseudomonas = experiment: as above; type: cell-based; settings: % bezogen auf den Wirkstoff; am 5. Tag
Protocol: as §3, §4

Xantomonas = experiment: as above; type: cell-based; settings: % bezogen auf den Wirkstoff; am 5. Tag
Protocol: as §3, §4

[1] = Solubility in water (descriptive); type: physicochemical
[2] = Storage stability (descriptive); type: physicochemical
Cladosporium resinae = experiment: Mycelial growth inhibition on agar (contact activity); type: cell-based; settings: Tabelle 11
[3] = test system: Cladosporium cladosporioides; experiment: as above; type: cell-based; settings: Tabelle 11
Acremonium cowum = experiment: as above; type: cell-based; settings: Tabelle 11
Acremonium charticola = experiment: as above; type: cell-based; settings: Tabelle 11
[4] = Konzentration des Präparats 0,01 %
[5] = Konzentration des Präparats 0,02 %
[6] = Konzentration des Präparats 0,05 %
[7] = Konzentration des Präparats 0,10 %
[8] = Konzentration des Präparats 0,005 %

Substance “Kupfer-bis-(N-vinyloxyäthyldithiocarbamat)” has a Myzelhemmung in % (Geotrichum candidum Link; [4]) of 100%, a Myzelhemmung in % (Geotrichum candidum Link; [5]) of 100% and a Myzelhemmung in % (Geotrichum candidum Link; [6]) of 100%. It also gave a Myzelhemmung in % (Geotrichum candidum Link; [7]) of 100%, a Myzelhemmung in % (Geotrichum candidum Link; [8]) of 100% and a Myzelhemmung in % (Penicillium charlesii; [4]) of 30%. The Myzelhemmung in % (Penicillium charlesii; [5]) was 80%, the Myzelhemmung in % (Penicillium charlesii; [6]) was 100% and the Myzelhemmung in % (Penicillium charlesii; [7]) was 100%. The Myzelhemmung in % (Penicillium charlesii; [8]) was 15%, the Myzelhemmung in % (Penicillium chrysogenum; [4]) was 25% and the Myzelhemmung in % (Penicillium chrysogenum; [5]) was 36%. For the same substance, the Myzelhemmung in % (Penicillium chrysogenum; [6]) was 70%, the Myzelhemmung in % (Penicillium chrysogenum; [7]) was 100% and the Myzelhemmung in % (Penicillium chrysogenum; [8]) was 10%. For the same substance, the Myzelhemmung in % (Walrotiela subiculesa; [4]) was 0%, the Myzelhemmung in % (Walrotiela subiculesa; [5]) was 10% and the Myzelhemmung in % (Walrotiela subiculesa; [6]) was 37%. For the same substance, the Myzelhemmung in % (Walrotiela subiculesa; [7]) was 100%, the Myzelhemmung in % (Walrotiela subiculesa; [8]) was 0% and the “Konzentrationen, welche das Bakterienwachstum völlig (100 %) hemmen” value (“Konzentrationen … (100 %) hemmen” below) (Bacillus) was 0,15%. For the same substance, the “Konzentrationen … (100 %) hemmen” value (Escherichia) was 0,15%, the “Konzentrationen … (100 %) hemmen” value (Micrococcus) was 0,15% and the “Konzentrationen … (100 %) hemmen” value (Pseudomonas) was 0,15%. The “Konzentrationen … (100 %) hemmen” value (Xantomonas) was 0,15%, the “Löslichkeit in Wasser” value [1] was “unlöslich” and the Lagerbeständigkeit [2] was “lagerbeständig”. The Myzelhemmung in % (Cladosporium resinae; [4]) was 50%, the Myzelhemmung in % (Cladosporium resinae; [5]) was 80% and the Myzelhemmung in % (Cladosporium resinae; [6]) was 90%. For the same substance, the Myzelhemmung in % (Cladosporium resinae; [7]) was 100%, the Myzelhemmung in % (Cladosporium resinae; [8]) was 34% and the Myzelhemmung in % [3, 4] was 36%. For the same substance, the Myzelhemmung in % [3, 5] was 65%, the Myzelhemmung in % [3, 6] was 80% and the Myzelhemmung in % [3, 7] was 100%. For the same substance, the Myzelhemmung in % [3, 8] was 15%, the Myzelhemmung in % (Acremonium cowum; [4]) was 100% and the Myzelhemmung in % (Acremonium cowum; [5]) was 100%. For the same substance, the Myzelhemmung in % (Acremonium cowum; [6]) was 100%, the Myzelhemmung in % (Acremonium cowum; [7]) was 100% and the Myzelhemmung in % (Acremonium cowum; [8]) was 100%. It also gave a Myzelhemmung in % (Acremonium charticola; [4]) of 96%, a Myzelhemmung in % (Acremonium charticola; [5]) of 100% and a Myzelhemmung in % (Acremonium charticola; [6]) of 100%. It also gave a Myzelhemmung in % (Acremonium charticola; [7]) of 100% and a Myzelhemmung in % (Acremonium charticola; [8]) of 70%.
